Test results published in patent publication US8883470B2, “Fermentation of carbohydrate” (Anitox Corporation, priority 2009, dated 2014).
Like-named read-outs stand apart in the source and are kept apart here.

How the values were obtained:
[1] = tested on: Lactobacillus plantarum (B-4496); settings: control also 0
Experimental: (§1) Whole corn obtained from a commercial source was treated with formalin (37% formaldehyde solution) at 0, 0.9, 1.8 and 2.7 kg/MT. After 24 h, 30 g of corn from each treatment was finely ground and added to glass fermenters with water, enzyme and yeast as described below. Lactobacillus plantarum (B-4496) grown in MRS broth was added to the fermentation bottles (0.2 ml of 6.2×10^5 cfu/g). Samples were taken after 72 hours fermentation for yeast and Lactobacillus counts. The whole content of the fermentations bottles were centrifuged for 30 minutes at 5000 rpm, filtered through cheesecloth and through a 0.45 u tilter to quantify ethanol production. Treatments are listed on the following table

Yeast [2] = tested on: Yeast
Experimental: as §1

Lactobacillus [3] = tested on: Lactobacillus
Experimental: (§2) Ethanol production and microbiological profile were analyzed in four fermentation studies using corn treated with 0 (control), 0.45 and 0.90 Kg/MT Formaldehyde. Ground corn and water were mixed and incubated at room temperature in a air-tight 250-ml fermenter jars for 6 hours. This was done in order to increase the naturally occurring Lactobacillus in corn. Previous studies have shown that the level of Lactobacillus is less than 100 cfu/gr in corn. The other reagents were added into the fermenters as described in the following table.
(§3) After the addition of all the reagents, fermenters were sealed with a cap containing a water trap. Fermenters were kept under constant stirring (low speed) at room temperature (21-23° C.) for 72 hours before sampling for yeast, Lactobacillus and alcohol production. Lactobacillus counts were determined on MRS broth containing 1.5% Difco™ Agar. Plates were incubated in an anaerobic chamber at 37-C for 48 hours and colonies enumerated. Yeast counts were determined on PDA plates. Plates were incubated at 27° C. for 48 hours and colonies enumerated. Alcohol was determined by FT-IR (FOSS system).

Yeast [4] = tested on: Yeast; remark: listed apart in the source
Experimental: as §2, §3

Wild Lactobacillus = tested on: Wild Lactobacillus
Experimental: (§4) Wild Lactobacillus and yeast/mold profile were determined in four studies using corn treated with 0 (control), 0.45 and 0.90 Kg/MT Formaldehyde (HCHO). Ground corn and water were mixed and incubated at room temperature (21-23° C.) in an anaerobic environment for 24 hours. To 5 gr of ground corn 45 ml of Butterfield was added and incubated overnight in a closed container while stirring at room temperature. After incubation, samples were taken to enumerate wild yeast/mold and Lactobacillus.

wild yeast/mold = tested on: wild yeast/mold
Experimental: as §4

Yeast [5] = tested on: Yeast; remark: listed apart in the source
Experimental: (§5) After 24 h, 30 g of corn from each treatment was finely ground and added to glass fermenters with water, enzyme and yeast as described below. Lactobacillus plantarum (B-4496) grown in MRS broth was added to the fermentation bottles (0.1 ml of 6.2×10^10 cfu/mL). Samples were taken after 72 hours fermentation for yeast and Lactobacillus counts.

[6] = tested on: Lactobacillus plantarum (B-4496)
Experimental: as §5

Lactobacillus [7] = settings: 600 mg/L, cited from earlier work
Lactobacillus [8] = settings: during fermentation; cited from earlier work
Yeast [9] = settings: 8 g/L; beet molasses batch fermentation; cited from earlier work
yeast populations = settings: 100 to 400 mg/L; cited from earlier work
Yeast [10] = settings: cited from earlier work

C=O [Formaldehyde, formaldehyde]
Lactobacillus (cfu/ml) 72 h ([1]; 0.9 kg/MT): 0 cfu/ml | Lactobacillus (cfu/ml) 72 h ([1]; 1.8 kg/MT): 0 cfu/ml | Lactobacillus (cfu/ml) 72 h ([1]; 2.7 kg/MT): 0 cfu/ml | Yeast (cfu/ml) 72 h (Yeast [2]; 0.9 kg/MT): 9.50 × 10^8 cfu/ml | Yeast (cfu/ml) 72 h (Yeast [2]; 1.8 kg/MT): 6.60 × 10^8 cfu/ml | Yeast (cfu/ml) 72 h (Yeast [2]; 2.7 kg/MT): 4.20 × 10^8 cfu/ml | Lactobacillus (cfu/gr) after 72-h Fermentation (Lactobacillus [3]; 0.45 kg/MT, Study 9): 8.5 × 10^8 cfu/gr | Lactobacillus (cfu/gr) after 72-h Fermentation (Lactobacillus [3]; 0.45 kg/MT, Study 10): 5.2 × 10^8 cfu/gr | Lactobacillus (cfu/gr) after 72-h Fermentation (Lactobacillus [3]; 0.45 kg/MT, Study 12): 8.9 × 10^8 cfu/gr | Lactobacillus (cfu/gr) after 72-h Fermentation (Lactobacillus [3]; 0.9 kg/MT, Study 9): 7.4 × 10^8 cfu/gr | Lactobacillus (cfu/gr) after 72-h Fermentation (Lactobacillus [3]; 0.9 kg/MT, Study 10): 4.3 × 10^8 cfu/gr | Lactobacillus (cfu/gr) after 72-h Fermentation (Lactobacillus [3]; 0.9 kg/MT, Study 12): 9.4 × 10^8 cfu/gr | Yeast (cfu/gr) after 72-h Fermentation (Yeast [4]; 0.45 kg/MT, Study 9): 9.5 × 10^8 cfu/gr | Yeast (cfu/gr) after 72-h Fermentation (Yeast [4]; 0.45 kg/MT, Study 10): 1.2 × 10^9 cfu/gr | Yeast (cfu/gr) after 72-h Fermentation (Yeast [4]; 0.45 kg/MT, Study 11): 4.7 × 10^9 cfu/gr | Yeast (cfu/gr) after 72-h Fermentation (Yeast [4]; 0.45 kg/MT, Study 12): 1.8 × 10^9 cfu/gr | Yeast (cfu/gr) after 72-h Fermentation (Yeast [4]; 0.9 kg/MT, Study 9): 7.4 × 10^8 cfu/gr | Yeast (cfu/gr) after 72-h Fermentation (Yeast [4]; 0.9 kg/MT, Study 10): 1.1 × 10^9 cfu/gr | Yeast (cfu/gr) after 72-h Fermentation (Yeast [4]; 0.9 kg/MT, Study 11): 3.6 × 10^9 cfu/gr | Yeast (cfu/gr) after 72-h Fermentation (Yeast [4]; 0.9 kg/MT, Study 12): 1.8 × 10^9 cfu/gr | Lactobacillus (cfu/gr) after 24-h Incubation (Wild Lactobacillus; 0.45 kg/MT, Study 1): 4.0 × 10^5 cfu/gr | Lactobacillus (cfu/gr) after 24-h Incubation (Wild Lactobacillus; 0.45 kg/MT, Study 2): 9.3 × 10^5 cfu/gr | Lactobacillus (cfu/gr) after 24-h Incubation (Wild Lactobacillus; 0.45 kg/MT, Study 3): 2.9 × 10^4 cfu/gr | Lactobacillus (cfu/gr) after 24-h Incubation (Wild Lactobacillus; 0.45 kg/MT, Study 4): 7.7 × 10^5 cfu/gr | Lactobacillus (cfu/gr) after 24-h Incubation (Wild Lactobacillus; 0.9 kg/MT, Study 1): 6.2 × 10^4 cfu/gr | Lactobacillus (cfu/gr) after 24-h Incubation (Wild Lactobacillus; 0.9 kg/MT, Study 2): 1.2 × 10^4 cfu/gr | Lactobacillus (cfu/gr) after 24-h Incubation (Wild Lactobacillus; 0.9 kg/MT, Study 3): 9.0 × 10^3 cfu/gr | Lactobacillus (cfu/gr) after 24-h Incubation (Wild Lactobacillus; 0.9 kg/MT, Study 4): 8.1 × 10^4 cfu/gr | Yeast (cfu/gr) after 24-h Incubation (wild yeast/mold; 0.45 kg/MT, Study 1): 3.0 × 10^5 cfu/gr | Yeast (cfu/gr) after 24-h Incubation (wild yeast/mold; 0.45 kg/MT, Study 2): 7.0 × 10^5 cfu/gr | Yeast (cfu/gr) after 24-h Incubation (wild yeast/mold; 0.45 kg/MT, Study 3): 1.6 × 10^5 cfu/gr | Yeast (cfu/gr) after 24-h Incubation (wild yeast/mold; 0.45 kg/MT, Study 4): 3.2 × 10^5 cfu/gr | Yeast (cfu/gr) after 24-h Incubation (wild yeast/mold; 0.9 kg/MT, Study 1): 7.6 × 10^4 cfu/gr | Yeast (cfu/gr) after 24-h Incubation (wild yeast/mold; 0.9 kg/MT, Study 2): 5.6 × 10^6 cfu/gr | Yeast (cfu/gr) after 24-h Incubation (wild yeast/mold; 0.9 kg/MT, Study 3): 2.0 × 10^3 cfu/gr | Yeast (cfu/gr) after 24-h Incubation (wild yeast/mold; 0.9 kg/MT, Study 4): 2.6 × 10^5 cfu/gr | Yeast (cfu/ml) 72 h (Yeast [5]; 0.9 kg/MT): 8.8 × 10^8 cfu/ml | Yeast (cfu/ml) 72 h (Yeast [5]; 1.8 kg/MT): 6.6 × 10^8 cfu/ml | Yeast (cfu/ml) 72 h (Yeast [5]; 2.7 kg/MT): 8.0 × 10^8 cfu/ml | Lactobacillus (cfu/ml) 72 h ([6]; 0.9 kg/MT): 9.8 × 10^7 cfu/ml | Lactobacillus (cfu/ml) 72 h ([6]; 1.8 kg/MT): 4.7 × 10^7 cfu/ml | Lactobacillus (cfu/ml) 72 h ([6]; 2.7 kg/MT): 3.7 × 10^7 cfu/ml | decrease in cfu's of Lactobacillus ([6]; Lactobacillus added at higher concentrations): 1 log

O=C(O)CCC(=O)O [Succinic acid]
reduction of Lactobacillus concentrations (Lactobacillus [7]; by itself): 78% | reduction of Lactobacillus concentrations (Lactobacillus [7]; in the presence of ethanol): up to 96%

NC(N)=O.OO [UHP, Urea hydrogen peroxide]
bactericidal activity against Lactobacillus (Lactobacillus [8]): excellent bactericidal activity

CC(O)C(=O)O (centres unmarked) [lactic acid]
reduction of alcohol production rate (Yeast [9]): 80% | reduction of yeast viability (Yeast [9]): 95%

O=S(O)O [sulfite]
effect on yeast populations (yeast populations): did not affect yeast populations

virginiamycin
inhibition of the yeast (Yeast [10]): does not significantly inhibit the yeast
